Test results as given in PMC6271714, “Hypotensive Effects and Angiotensin-Converting Enzyme Inhibitory Peptides of Reishi (Ganoderma lingzhi) Auto-Digested Extract” (Molecules, 2014).
Where a SMILES comes first, the peptide text is derived from it.

These compounds were tested against T1, Angiotensin-Converting Enzyme (ACE) (Homo sapiens, UniProt P12821) (assay: ACE inhibition assay (Dojindo ACE Kit-WST A502)). Conditions: synthesized peptides, six concentrations 10 to 100 μg/mL; read-out: IC50 Values (μM), ACE inhibition capacity.
T1 construct: purchased Dojindo Laboratories ACE Kit-WST A502
T1 sequence (P12821 30-1306, species assumed): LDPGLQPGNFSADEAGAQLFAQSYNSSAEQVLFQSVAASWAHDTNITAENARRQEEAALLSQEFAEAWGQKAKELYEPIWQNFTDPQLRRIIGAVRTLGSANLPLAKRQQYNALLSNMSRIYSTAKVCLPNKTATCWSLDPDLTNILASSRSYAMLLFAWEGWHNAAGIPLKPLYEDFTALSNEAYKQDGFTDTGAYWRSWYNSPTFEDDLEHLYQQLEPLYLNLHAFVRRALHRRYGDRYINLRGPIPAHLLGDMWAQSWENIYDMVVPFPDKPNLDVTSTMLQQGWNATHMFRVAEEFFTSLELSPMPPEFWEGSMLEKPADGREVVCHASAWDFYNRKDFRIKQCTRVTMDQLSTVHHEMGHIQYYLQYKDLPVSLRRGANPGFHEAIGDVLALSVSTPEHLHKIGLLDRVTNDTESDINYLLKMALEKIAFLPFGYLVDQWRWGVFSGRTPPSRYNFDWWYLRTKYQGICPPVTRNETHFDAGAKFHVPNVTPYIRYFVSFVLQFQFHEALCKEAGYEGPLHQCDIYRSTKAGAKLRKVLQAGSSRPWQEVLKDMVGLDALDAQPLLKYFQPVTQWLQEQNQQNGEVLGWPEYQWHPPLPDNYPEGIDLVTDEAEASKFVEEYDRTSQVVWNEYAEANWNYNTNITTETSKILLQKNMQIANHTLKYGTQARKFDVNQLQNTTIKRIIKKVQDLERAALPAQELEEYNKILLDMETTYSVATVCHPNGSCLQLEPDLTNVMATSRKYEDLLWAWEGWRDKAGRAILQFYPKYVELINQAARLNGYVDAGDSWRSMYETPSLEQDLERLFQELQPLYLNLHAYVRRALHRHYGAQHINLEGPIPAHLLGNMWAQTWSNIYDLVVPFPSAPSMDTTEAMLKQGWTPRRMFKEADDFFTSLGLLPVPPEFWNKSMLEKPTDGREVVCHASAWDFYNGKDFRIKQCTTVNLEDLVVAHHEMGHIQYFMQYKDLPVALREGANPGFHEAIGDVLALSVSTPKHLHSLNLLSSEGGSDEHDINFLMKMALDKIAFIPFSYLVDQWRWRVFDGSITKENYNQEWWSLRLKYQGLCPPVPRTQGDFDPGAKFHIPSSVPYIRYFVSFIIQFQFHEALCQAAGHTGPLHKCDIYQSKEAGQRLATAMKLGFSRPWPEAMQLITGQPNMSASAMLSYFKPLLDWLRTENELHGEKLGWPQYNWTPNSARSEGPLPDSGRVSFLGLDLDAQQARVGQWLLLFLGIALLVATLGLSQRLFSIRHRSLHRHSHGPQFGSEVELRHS
Format: biochemical
Description: Dojindo ACE Kit-WST A502 was used for testing the ACE-inhibitory activity. Principles of the kit were described in details in a previous report. Testing procedures were run strictly according to the manufacturer’s instructions using a 96-well plate, and inhibition rate was calculated based on the comparison of optical absorbance of sample-treated wells (As), control wells (Ac) and blank wells (Ab) as in the equation below. Absorbance was measured at 450 nm using microplate reader-Biotek-ELX800 (BioTek, Winooski, VT, USA): Inhibition rate (%) = [(Ac − As)/(Ac − Ab)]×100 (1)
For the peptides, six different concentrations of each peptide, ranging from 10 to 100 μg/mL, were assayed, and dose-response curves were plotted for the calculation of the IC50 values. IPP has been proven to be an ACE inhibitor [34] and thus was used as positive control (at concentrations ranging from 0.15 to 5 μg/mL).

Question: Which IC50 does the source give for `CC(C)C[C@H](NC(=O)[C@H](C)N)C(=O)O` [Ala-Leu] (H-Ala-Leu-OH) here?
Answer: > 200 µM

Question: With `C[C@H](N)C(=O)N[C@@H](Cc1ccc(O)cc1)C(=O)O` [Ala-Tyr] (H-Ala-Tyr-OH) as the compound, how does the IC50 read?
Answer: 163 µM

Question: How did the IC50 turn out when `CC[C@H](C)[C@H](NC(=O)[C@H](CO)NC(=O)[C@@H](N)CC(N)=O)C(=O)O` [Asn-Ser-Ile] (H-Asn-Ser-Ile-OH) was run?
Answer: 342 µM

Question: `CC(C)C[C@H](NC(=O)[C@@H]1CCCN1C(=O)CN)C(=O)O` [Gly-Pro-Leu] (H-Gly-Pro-Leu-OH) was tested. Which IC50 did it give?
Answer: > 500 µM

Question: How did the IC50 turn out when `CC[C@H](C)[C@H](N)C(=O)N[C@@H](CCCNC(=N)N)C(=O)O` [Ile-Arg] was run?
Answer: 73.7 µM

Question: `CC[C@H](C)[C@H](N)C(=O)N1CCC[C@H]1C(=O)N[C@H](C(=O)O)[C@@H](C)O` [Ile-Pro-Thr] (H-Ile-Pro-Thr-OH) was tested. Which IC50 did it give?
Answer: 73.1 µM

Question: How did the IC50 turn out when `CC(C)[C@H](NC(=O)[C@@H](N)CCCCN)C(=O)N1CCC[C@H]1C(=O)O` [Lys-Val-Pro] (H-Lys-Val-Pro-OH) was run?
Answer: > 500 µM

Question: How did the IC50 turn out when `CC[C@H](C)[C@H](NC(=O)[C@@H](N)CO)C(=O)O` [Ser-Ile] (H-Ser-Ile-OH) was run?
Answer: > 200 µM

Question: Which IC50 does the source give for `CC(C)C[C@H](NC(=O)[C@@H](N)CO)C(=O)O` [Ser-Leu] (H-Ser-Leu-OH; N-terminus and C-terminus assumed) here?
Answer: > 200 µM

Question: For `N[C@@H](CO)C(=O)N[C@@H](Cc1ccc(O)cc1)C(=O)O` [Ser-Tyr] (H-Ser-Tyr-OH), which IC50 is on record?
Answer: 94.7 µM

Question: Which IC50 does the source give for `CC(C)C[C@H](NC(=O)[C@@H](N)[C@@H](C)O)C(=O)O` [Thr-Leu] (H-Thr-Leu-OH) here?
Answer: > 200 µM
